From article PMC3906059, “Activation and Inhibition of TMEM16A Calcium-Activated Chloride Channels” (PLoS ONE, 2014)
Where “and” joins values, the source holds several entries; their conditions need not be identical. Equal entries are not always repeated. Entries after “also recorded” stand apart in the source; their conditions may differ.

Legend:
Type in all cases: cell-based
TMEM16A (ANO1) [1] = biological target: T1, TMEM16A (ANO1) (Mus musculus, UniProt Q8BHY3); experiment: Anion permeability of the ANO1 pore, Erev under bi-ionic conditions; conditions: for permeability ratio PX/PCl: Ca^2+-activated current, calculated from Erev after junction potential correction; for zero current potential of I–V curve: example ramp −80 to +80 mV, [Ca^2+] = 20 µM, intracellular salt 140 mM (NaHCO3 130 mM + 10 mM NaCl)
T1 construct: We subcloned the coding region of the cDNA into pEGFP-N3 vector; expressed in transfected cells; host or cells: HEK293 cells
T1 sequence (Q8BHY3 1-956 isoform Q8BHY3-2): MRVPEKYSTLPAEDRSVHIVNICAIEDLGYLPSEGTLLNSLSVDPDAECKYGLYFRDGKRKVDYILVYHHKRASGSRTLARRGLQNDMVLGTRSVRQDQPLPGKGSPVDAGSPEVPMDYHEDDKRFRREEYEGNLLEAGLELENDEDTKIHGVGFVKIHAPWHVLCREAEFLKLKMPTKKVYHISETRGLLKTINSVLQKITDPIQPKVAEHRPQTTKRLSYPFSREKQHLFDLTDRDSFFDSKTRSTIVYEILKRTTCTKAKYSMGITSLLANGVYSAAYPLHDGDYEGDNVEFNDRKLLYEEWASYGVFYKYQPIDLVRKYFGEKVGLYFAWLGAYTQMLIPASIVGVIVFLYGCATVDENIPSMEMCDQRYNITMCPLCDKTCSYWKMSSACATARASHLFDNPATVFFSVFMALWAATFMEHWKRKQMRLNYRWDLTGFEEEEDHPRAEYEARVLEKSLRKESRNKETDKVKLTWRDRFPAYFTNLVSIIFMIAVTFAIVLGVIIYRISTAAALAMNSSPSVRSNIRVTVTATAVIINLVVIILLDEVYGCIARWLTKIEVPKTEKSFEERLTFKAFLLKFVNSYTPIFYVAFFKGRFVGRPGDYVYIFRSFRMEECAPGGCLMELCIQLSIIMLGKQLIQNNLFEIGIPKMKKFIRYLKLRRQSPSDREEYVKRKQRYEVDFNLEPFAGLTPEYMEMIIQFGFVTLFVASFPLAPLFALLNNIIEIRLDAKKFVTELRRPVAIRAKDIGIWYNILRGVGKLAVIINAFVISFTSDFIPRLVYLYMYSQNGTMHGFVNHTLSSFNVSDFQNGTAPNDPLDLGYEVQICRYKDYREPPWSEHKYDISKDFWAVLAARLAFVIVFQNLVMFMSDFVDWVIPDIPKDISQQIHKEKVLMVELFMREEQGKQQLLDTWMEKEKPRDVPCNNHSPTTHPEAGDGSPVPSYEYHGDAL
Description: (§1) The mouse TMEM16A cDNA (NCBI reference sequence: NM_001242349.1) encoding ANO1 CaCC was a generous gift from Dr. Lily Jan. We subcloned the coding region of the cDNA into pEGFP-N3 vector (Clontech Laboratories, Inc.), resulting in a construct in which an enhanced green fluorescent protein (eGFP) was attached to the C-terminus of the ANO1 protein. The sequence was confirmed by commercially-available DNA sequencing service. This eGFP-attached ANO1 cDNA construct was used for channel expression throughout the study. The cDNA was transfected into human embryonic kidney (HEK) 293 cells using lipofectamine transfection methods, [42], [43]. A fluorescent light source and a GFP filter set (Chroma Technology Co.) in the DM IRB inverted microscope (Leica Microsystems) were used to identify transfected cells expressing channel proteins. Electrophysiological experiments were performed ∼24 to 72 hours after transfection.
The anion permeability of the ANO1 pore was examined under bi-ionic conditions in which the extracellular solution contained 140 mM NaCl (the zero-Ca^2+ solution). The intracellular solution contained 140 mM sodium salts of various anions with the exception of the HCO3 ^− experiment in which the solution contained 130 mM NaHCO3 and 10 mM NaCl. In all intracellular solutions for the bi-ionic experiments, 0.1 mM EGTA and 0.12 mM total Ca^2+ or Sr^2+ were added to the solution to activate the ANO1 channel (Free [Ca^2+] or [Sr^2+] were saturating concentrations). Erev of the open channel was measured in two ways. First, under voltage-clamp configuration, a 3-sec voltage ramp from −80 mV to +80 mV was applied and the Erev of the leak-subtracted I-V curve was then determined (see Fig. 5 A & B). The second method employed the current-clamp (I = 0) mode in which the patch was exposed to divalent cations throughout the recording (Fig. 5 C and Fig. 6 A & C). When the intracellular solution contained the same concentration of Cl^− as that in the extracellular side, the recorded voltage (EI = 0) was normally close to 0 mV. When the intracellular solution was replaced by the one containing other anions, the value of EI = 0 changed to a new value corresponding to the Erev of the new ionic condition. It is important to point out that the measurement of Erev can be imprecise if the amplitude of the ANO1 current is not within a proper range. Therefore, in permeability ratio measurements we only used the data obtained from patches with a maximal current in the range of 100 pA–1000 pA at +40 mV. All the presented Erev values (and the recording traces for measuring Erev) are not corrected for junction potential difference between solutions because the junction potentials are relatively small. However, the reported permeability ratios were calculated based on the junction potential-corrected Erev. The correction for the junction potential results in very small changes in the calculated permeability ratios.
The permeability ratios of various anions versus Cl^− (PX/PCl, where X represents various anions) were calculated using the Erev obtained from bi-ionic experiments according to the following equation (eq. 3), PX/PCl = exp[Erev/(RT/F)], where R, T, and F are the gas constant, absolute temperature, and Faraday constant, respectively. Comparing the difference between Erev’s of the Ca^2+- and Sr^2+-activated current was performed using the pair t test at the significant level of 0.05.

TMEM16A (ANO1) [2] = biological target: T1, TMEM16A (ANO1); experiment: Mg^2+ inhibition of Ca^2+-induced ANO1 current and shift of the Ca^2+-activation curve (Schild plot)
Description: as §1
All chemicals were reagent grade. Regular salts (such as NaCl, NaOH, CaCl2, SrCl2, BaCl2, MgCl2 or sodium salts of various anions) were purchased from Fisher Chemicals (Fair Lawn, NJ), J. T. Baker (Phillipsburg, NJ) or Sigma Chemicals Co. (St. Louis, MO). EGTA, HEPES, and NFA were from Sigma Chemicals Co. Excised inside-out patch-clamp recordings were performed throughout the study. The extracellular (pipette) solution in all experiments contained: 140 mM NaCl, 10 mM HEPES, 0.1 mM EGTA, pH = 7.4. The regular intracellular solution contained 10 mM HEPES and 140 mM sodium salt of Cl^− or other anions. Various concentrations of divalent cations were made by adding certain total concentrations of divalent cations (Cl^− salts) into the solution containing a defined concentration of EGTA. We defined the pipette solution as the “zero-Ca^2+” solution. A solution containing a saturating [Ca^2+] was made by adding 0.12 mM total [Ca^2+] into the aforementioned zero-Ca^2+ solution, resulting in a solution containing ∼20 µM free [Ca^2+]. For making non-saturating [Ca^2+] solutions, the solutions included 1 mM EGTA. […]
Because of weak Mg^2+-EGTA binding, we referred the total [Mg^2+] as the free [Mg^2+]. The free [Ca^2+], [Sr^2+], and [Ba^2+] were calculated using the MaxChelator program (Ver1.2) kindly provided by Chris Patton from the Stanford University. […] Table S1, Table S2, and Table S3 list respectively the calculated free [Ca^2+], [Sr^2+], and [Ba^2+] used in this study. […]
Solution exchange was achieved using the SF-77 solution exchanger (Warner Instruments). […] The recorded current is normally time-independent following fast solution exchange, but on infrequent occasions there is a slow increase of current. Therefore, we measured the current amplitude at the end of the solution exchange when the current amplitude reaches a steady-state maximal value. […]

TMEM16A (ANO1) [3] = biological target: T1, TMEM16A (ANO1); experiment: Activation of ANO1 current by divalent cations, excised inside-out patch with fast solution exchange
Description: as §1
All chemicals were reagent grade. Regular salts (such as NaCl, NaOH, CaCl2, SrCl2, BaCl2, MgCl2 or sodium salts of various anions) were purchased from Fisher Chemicals (Fair Lawn, NJ), J. T. Baker (Phillipsburg, NJ) or Sigma Chemicals Co. (St. Louis, MO). EGTA, HEPES, and NFA were from Sigma Chemicals Co. Excised inside-out patch-clamp recordings were performed throughout the study. The extracellular (pipette) solution in all experiments contained: 140 mM NaCl, 10 mM HEPES, 0.1 mM EGTA, pH = 7.4. The regular intracellular solution contained 10 mM HEPES and 140 mM sodium salt of Cl^− or other anions. Various concentrations of divalent cations were made by adding certain total concentrations of divalent cations (Cl^− salts) into the solution containing a defined concentration of EGTA. We defined the pipette solution as the “zero-Ca^2+” solution. A solution containing a saturating [Ca^2+] was made by adding 0.12 mM total [Ca^2+] into the aforementioned zero-Ca^2+ solution, resulting in a solution containing ∼20 µM free [Ca^2+]. For making non-saturating [Ca^2+] solutions, the solutions included 1 mM EGTA. To make solutions containing Sr^2+ and Ba^2+, only 0.1 mM EGTA was used. The pH of all solutions was adjusted to 7.4.
Because of weak Mg^2+-EGTA binding, we referred the total [Mg^2+] as the free [Mg^2+]. The free [Ca^2+], [Sr^2+], and [Ba^2+] were calculated using the MaxChelator program (Ver1.2) kindly provided by Chris Patton from the Stanford University. This program was developed based on the binding constants available in the National Institute of Standard and Technology (NIST) between EGTA and these three divalent cations. Table S1, Table S2, and Table S3 list respectively the calculated free [Ca^2+], [Sr^2+], and [Ba^2+] used in this study. All added divalent cations were Cl^− salts. […] For example, in a solution containing 5 mM, 10 mM or 30 mM MgCl2, only 130 mM, 120 mM or 80 mM of NaCl, respectively, were added to the solution.
The patch-clamp recording pipettes were fabricated from borosilicate glass capillaries (World Precision Instruments) using PP830 electrode puller (Narishige International). When filled with the pipette solution, the electrode resistance was ∼1.5–3 MΩ. The experiments were carried out at room temperature (20–23°C) using the Axopatch 200B amplifier controlled by the Digidata I/O converter and the pClamp9 software (Axon Instruments/Molecular Devices).
Solution exchange was achieved using the SF-77 solution exchanger (Warner Instruments). After the excised inside-out patch mode was established, the tip of the patch pipette was positioned at the exit of the solution-delivery pipes of the SF-77 solution exchanger. The switch of solution pipes was controlled by a digital signal delivered from the Digidata 1320 digitizing board. […]

[4] = Ca^2+-activated current (20 µM), 140 mM extracellular NaCl, anion as intracellular sodium salt 140 mM (HCO3: 130 mM NaHCO3 + 10 mM NaCl), without junction potential correction, averaged
[5] = current activated by 20 µM Sr^2+, current clamp (I = 0), without correcting for junction potential
[6] = Schild plot from K1/2,Ca in 0, 2, 5 and 10 mM Mg^2+

| SMILES | Erev (bi-ionic potential) (TMEM16A (ANO1) [1]; [4]) | permeability ratio PX/PCl (TMEM16A (ANO1) [1]) | Erev (bi-ionic potential) (TMEM16A (ANO1) [1]; [5]) | zero current potential of I–V curve (TMEM16A (ANO1) [1]; 140 mM extracellular NaCl) | also measured |
| --- | --- | --- | --- | --- | --- |
| [I-].[Na+] [I^−] | 35.9±3.3 mV | ~4.1 | 33.4±0.3 mV | +39 mV | Erev (bi-ionic potential) (TMEM16A (ANO1) [1]; Ca^2+-activated current (20 µM), 140 mM extracellular NaCl, anion as intracellular sodium salt 140 mM (HCO3: 130 mM NaHCO3 + 10 mM NaCl), without junction potential correction, averaged, listed as I^–): ~+35 mV |
| [Mg+2] [Mg^2+] |  |  |  |  | IC50 (TMEM16A (ANO1) [2]; ANO1 current induced by 0.666 µM free Ca^2+, fit to eq. 2, read-out: apparent half-inhibition concentration): 5400 µM; [Mg^2+] that increases K1/2,Ca 2-fold (Schild plot) (TMEM16A (ANO1) [2]; [6]): ~2.5 mM; pMg at crossing of the horizontal axis of the Schild plot (TMEM16A (ANO1) [2]; [6]): ~2.6; Mg^2+ inhibition of ANO1 current activated by saturating [Ca^2+] (TMEM16A (ANO1) [2]; saturating [Ca^2+], 5 mM Mg^2+ (Fig. 4 C)): not observed; also recorded: not inhibited; ANO1 activation by Mg^2+ (TMEM16A (ANO1) [3]; up to 30 mM [Mg^2+], intracellular side): no ANO1 activation was detected; also recorded: unable to detect ANO1 current |
| O=[N+]([O-])[O-].[Na+] [NO3 ^−] | 32.9±1.1 mV | ~3.5 | 31.3±0.5 mV | +33 mV |  |
| N#C[S-].[Na+] [SCN^−] | 62.0±2.4 mV | ~11 | 59.4±0.8 mV | +64 mV | Erev (bi-ionic potential) (TMEM16A (ANO1) [1]; Ca^2+-activated current (20 µM), 140 mM extracellular NaCl, anion as intracellular sodium salt 140 mM (HCO3: 130 mM NaHCO3 + 10 mM NaCl), without junction potential correction, averaged, listed as SCN^–): ~+60 mV; voltage shift induced by SCN^− in Sr^2+ smaller than that in Ca^2+ by (TMEM16A (ANO1) [1]; same patch, 140 mM intracellular NaSCN, 4 patches): ~1 mV |
| [Cl-].[Cl-].[Sr+2] [Sr^2+] |  |  |  |  | difference of Erev between channels activated by Sr^2+ and Ca^2+ (TMEM16A (ANO1) [1]): 1–2 mV; maximal ANO1 current activated by saturating divalent cation compared with Is induced by saturating [Ca^2+] (TMEM16A (ANO1) [3]; Is induced by 20 µM Ca^2+, ±40 mV): can activate the same maximal current; also recorded: activated the channel to the same maximal current level; Hill coefficient (n) of dose-response activation curve (TMEM16A (ANO1) [3]; values covering +40 and −40 mV): 2–2.6 and ~2; EC50 (TMEM16A (ANO1) [3]; values covering +40 and −40 mV, read-out: K1/2 of ANO1 activation): 5 to 10 µM and ~5 µM |
| N[C@@H](CCC(=O)O)C(=O)[O-].[Na+] [glutamate, Na-glutamate] | < −80 mV |  |  |  |  |
